# Reference: US20080206364A1, “Topical nitric oxide as a treatment of autoimmune diseases” (Nitric Biotherapeutics, Inc., priority 2006, published 2008)
# “Also recorded” adds a separate entry of the source.
# What was measured:
# collagen mRNA = experiment: mRNA expression for collagen following exposure to NO; assay type: cell-based
# Text: Rather than applying exogenous collagenase for enzymatic debridement of necrotic tissue, exposing a wound with necrotic tissue to exogenous NO gas to upregulate endogenous collagenase may be more beneficial. When endogenous collagenase is released by the cell, it automatically releases TIMP's (tissue inhibitor of metalloproteinase). This ensures that the matrix degradation is coordinated and allows the establishment of sharp geographical boundaries of collagenolytic activity and the protection of areas of connective tissue from the activity of the enzyme. In contrast, use of exogenous collagenase material to debride a wound confers no protection to specific areas of the wound as it is active on every cell that comes in contact with it whether or not the effect is desired.
# Preferably, after the exposure of the wound to high concentration of nitric oxide gas for a first treatment period (e.g., 5-8 hours per day), the necrotic tissue may be mechanically removed easily and the concentration of nitric oxide gas can be decreased for a second treatment period. The low concentration of nitric oxide gas (e.g., at 5-20 ppm) delivered for the second treatment period may upregulate the expression of collagen mRNA leading to synthesis of new collagen to aid in the closure of the wound. […] The second treatment period may be for a period 7-16 hours per day. […]
# [1] = test system: leg ulcer induced by an autoimmune disorder; experiment: Autoimmune wound patient: leg ulcer in antiphospholipid antibody syndrome, topical nitric oxide gas; assay type: in vivo, human
# Text: A patient was diagnosed with antiphospholipid antibody syndrome. Antiphospholipid antibody syndrome is an autoimmune disorder that mainly affects people under the age of 40. The disease causes the blood in the body to clot and is associated with a type of antibody that attacks blood platelets. Strokes, deep vein thrombosis (DVT), heart attacks, and pulmonary emboli are some of the manifestations of the disease. As a result of this syndrome, the patient had two DVT's and one pulmonary embolism.
# Following repetitive injury to the deep venous system, the patient developed three areas of ulceration and secondary skin breakdown on the left shin area of the leg. The wound was colonized with a variety of organisms and at times had been clinically infected. The patient had been treated with numerous types of oral and IV antibiotics over several years. Many different types of dressings had been used to control the bacteria, including silver dressings, all without success.
# The three small ulcers continued to grow in size and then joined together to create one large ulcer (FIG. 15A). Skin grafts on two occasions deteriorated and sloughed due to repetitive infections and high bacterial burden, even with the use of hyperbaric oxygen treatment.
# With the inability to control the bacterial burden, amputation was planned. As a rescue trial, topical nitric oxide gas was applied for eight hours per night.
# The nitric oxide therapy was then changed to be used for 12 hours per night, using 200 ppm gNO.
# [2] = test system: full thickness infected wound; experiment: Histology of full thickness infected wound punch biopsies, gNO-treated vs control animals; assay type: in vivo; conditions: for toxic effects (cellular debris) in wound tissue: in vivo exposure, 200 ppm gNO, open wound animal model
# Method: FIG. 5 illustrates histology analysis of full thickness infected wound exposed to 200 ppm gNO for 24 hours.
# FIG. 5 presents histological analysis of tissue blocks prepared on wound punch biopsies from animals in NO-treated and control groups. Samples from the control group show more advanced neutrophil infiltration and so a higher degree of inflammatory reaction. […] Overall, a healthier healing process is observed in the wounds treated with gNO.
# human endothelial cells = experiment: Tube formation in human endothelial cells grown in matrigel; assay type: cell-based; conditions: 200 ppm NO, 8 hours or 24 hours
# Method: Left panels at 8 hours of exposure. Right panels at 24 hours of exposure.
# collagenase mRNA = experiment: mRNA expression for collagenase following exposure to gNO; assay type: cell-based; conditions: 200 ppm gNO, 24 and 48 hours, with increasing exposure time
# Text: Witte M B, et al, (2002) Nitric oxide enhances […] wound healing in diabetes, Br J Surg., 89:1594-601. Thus, Applicants believe that NO may upregulate expression of both collagenase (MMP-1) and gelatinase (MMP-2), which may be important in keeping the wound clean from necrotic tissue while not prolonging the inflammatory phase.
# psoriatic lesions = experiment: Psoriasis study, one volunteer, NO delivered to right foot in plastic boot; assay type: in vivo, human; conditions: 300 ppm
# Method: Experiments were conducted using one volunteer who suffers from psoriasis. The subject had psoriasis on their arms, legs and feet, all of which is itchy and painful. At the time of the study, the volunteer was using a medicated cream called DOVOBET on the arms and legs. The subject stopped using the medicated cream on the legs and feet prior to the NO treatments described herein.
# Treatments were administered to the subject's right foot, as it appeared to have been affected the most by psoriasis. […] Around the ankle were small red blotches that spread all of the way up the leg. The small blotches were slightly raised and appeared to be inflamed.
# The subject's foot was placed into a large plastic boot, which was lightly secured with VELCRO straps halfway up the calf. A tube coming out of the top of the plastic boot was unaltered, and the second tube was sealed off using a plastic clamp. A NO line capable of delivering NO at 300 ppm, 250 cc per minute, was screwed into the bottom tubing closest to the ankle using a plastic screw. A pin was used to pick several holes in the bottom of the plastic boot to allow the NO to flow through the boot. NO was then administered to the boot, and therefore, the psoriatic lesions, at 300 ppm for 180 minutes per day over six consecutive days.
# human fibroblast cells = experiment: Fibroblast viability study in gNO incubation chamber (morphology, cell count, proliferation); assay type: cell-based
# Method: Fibroblast cells obtained from adult patients undergoing elective reconstructive surgery were cultured in Dulbeco's Modified Eagle's Medium (DMEM), supplemented with 10% fetal bovine serum (FBS) and antibiotic-antimycotic preparation and divided into ten 25 cm^2 vented culture flasks (COSTAR). Four of these flasks (treated group) were exposed to 20 or 200 ppm humidified gNO inside a specialized NO incubation chamber at 37° C. for 24 and 48 hours. The NO exposure chamber was validated prior to the study to eliminate extraneous variables and ensure optimal conditions for fibroblast cell growth. Another four flasks (control group) were placed inside conventional culture incubator and exposed only to ambient humidified air at 37° C. Two flasks were separately harvested and counted as the number of cells at zero time. Following the treatment, fibroblast cells were harvested and evaluated for morphology, cell count, capacity to proliferate and medium pH.
# Cells under gNO appeared healthy and attached to the culture plates.
# [3] = test system: fibroblasts grown in a 3D matrix; experiment: Migration and proliferation of fibroblasts grown in a 3D matrix; assay type: cell-based; conditions: 200 ppm NO, 8 hours per day for 3 days, vs air or conventional incubator
# human fibroblasts = experiment: Cell attachment capacity of human fibroblasts; assay type: cell-based; conditions: 160 ppm gNO, within 1 hour of culturing; control group the same
# Method: FIG. 9 illustrates cell attachment capacity of human fibroblasts following exposure to 160 ppm of gNO.
# Capability of cells to reattach to the culture plates within a specified time limit is commonly used as an indication of viability of cells in culture. Both the control and treated groups show a 70% attachment capacity within 1 hour of culturing.
# [4] = 200 ppm gNO, 12 hours per night, another eight weeks
# [5] = after second treatment (day two)
# [6] = after third treatment (day three)
# [7] = gNO less than 200 ppm continuously for 48 hours
compound,measurement,setting,value
"[N]=O [NO, nitric oxide]",collagen mRNA expression,collagen mRNA; fibroblasts exposed to 5 ppm of NO,increased collagen mRNA expression
same,collagen expression,"collagen mRNA; high concentration (200 ppm) of exogenous nitric oxide, FIG. 6 left panel",possible inhibition of collagen expression
same,clinical outcome (planned amputation),[1]; [4],amputation was avoided
same,wound covered by beefy red granulation tissue,[1]; [4],~75%
same,wound appearance,"[1]; topical, eight hours per night, within six weeks","less yellow slough in the wound bed, the wound edges appeared less raised, and more granulation buds were present"
same,neutrophil concentration (inflammatory reaction) in wounds,"[2]; 200 ppm gNO for 24 hours, vs control group",lower level of neutrophil concentration
same,wound closure / healing process (histology),"[2]; 200 ppm gNO for 24 hours, vs control wounds",layer of granular tissue closing on the wound
same,toxic effects (cellular debris) in wound tissue,[2]; listed as gNO,No toxic effects
same,toxic effects (cellular debris) in wound tissue,[2]; listed as nitric oxide gas,no toxicity
same,tube formation vs air,human endothelial cells,no significant difference
same,expression of collagenase mRNA,collagenase mRNA,increased
same,appearance of the psoriasis,"psoriatic lesions; 180 min, after first treatment (day one)",no change
same,white scales on the ankle,"psoriatic lesions; 180 min, after the first day",disappeared
same,discolored (dark) patch of skin on inner calf,"psoriatic lesions; 180 min per day, after day two",almost gone
same,physical results (psoriatic condition),"psoriatic lesions; after fourth, fifth and sixth treatments (days 4, 5 and 6)",remain the same
same,inflammation around the ankle,psoriatic lesions; [5],diminished slightly
same,small red blotches around the ankle and up the leg,psoriatic lesions; [5],the same as prior to the treatment
same,inflammation around the ankle,psoriatic lesions; [6],decreased considerably
same,psoriatic lesion around the ankle (area),psoriatic lesions; [6],smaller in area
same,small red blotches around the ankle and up the leg,psoriatic lesions; [6],appeared the same
same,fibroblast cell proliferation,"human fibroblast cells; 200 ppm NO, vs control",increasing proliferation; also recorded: increase in fibroblast cell proliferation
same,"harmful effects on the fibroblast (morphology, cell count, capacity to proliferate, medium pH)","human fibroblast cells; around 200 ppm gNO, 24 and 48 hours, 37° C.",did not have harmful effects
same,morphological appearance and attachment capacity of treated vs control dermal fibroblasts,human fibroblast cells; [7],quite comparable
same,toxic effect due to exposure,human fibroblast cells; [7],No toxic effect
same,migration of fibroblasts,[3],does not appear to affect
same,proliferation of fibroblasts in 3D matrix,[3],does not appear to interfere with the proliferation
same,attachment capacity,human fibroblasts,70%
